Test results published in article PMC5219024, “New acetylenic derivatives of betulin and betulone, synthesis and cytotoxic activity” (Medicinal Chemistry Research, 2016).
Converted amounts (≈) assume the structure as drawn. Read-outs that look alike come from different tables or passages of the source.

What was measured:
[1] = test system: T47D (human breast cancer); assay: Antiproliferative assay in vitro (SRB), T47D; type: cell-based; conditions: read-out: Cytotoxic activity IC50, T47D
Protocol: (§1) The tested cell lines were obtained from the American Type Culture Collection (Rockville, Maryland, USA) and maintained at the Cell Culture Collection of the Institute of Immunology and Experimental Therapy (Wrocław, Poland). The cells were seeded in 96-well plates (Sarstedt, USA) at a density of 10^4 cells per well in 100 µL of culture medium overnight. […] The normal mouse fibroblasts BALB3T3 was cultured in Dulbecco’s modified Eagle’s medium (Sigma-Aldrich, Chemie GmbH, Steinheim, Germany) supplemented with 2 mM glutamine (Sigma-Aldrich, Chemie GmbH, Steinheim, Germany) and 10 % fetal calf serum FBS (Sigma-Aldrich, Chemie GmbH, Steinheim, Germany). The all culture media were supplemented with streptomycin (100 µg/mL) and penicillin (100 U/mL) (both antibiotics from Polfa, Tarchomin, Poland). The cell cultures were maintained at 37 °C in humid atmosphere saturated with 5 % CO2. This technique as first was described by Skehan et al. in [1990]. The SRB assay was performed after 96 h exposure of the cultured cells to varying concentrations (ranging from 1 to 100 µg/mL) of the tested substances. The reported derivatives as well as betulin 1 were dissolved in 10 % dimethyl sulfoxide (DMSO) to concentration of 1 mg/mL, and next diluted in culture medium to reach the required concentrations. […] The cells fastened to the plastic were fixed mildly layering cold 50 % TCA (trichloroacetic acid, Aldrich-Chemie, Germany) on the top of the culture medium in each well. The plates were incubated at 4 °C for 1 h and then washed five times with tap water. The cells fixed with TCA were stained with 0.4 % sulforhodamine B (SRB, Sigma, Germany) dissolved in 1 % acetic acid (POCH, Gliwice, Poland) for 30 min. The unbound dye was removed by rinsing four times with 1 % acetic acid. The protein-bound dye was extracted with 10 mM unbuffered tris base (POCH, Gliwice, Poland) and then determined the optical density at 540 nm in a computer-interfaced, 96-well microtiter plate reader Multiscan RC photometer (Labsystems, Helsinki, Finland). The compounds in given concentration were examined in triplicates in each experiment which was repeated 3–5 times. The results of cytotoxic activity in vitro were expressed as an IC50 in µg/mL.

[2] = test system: CCRF/CEM (human leukemia); assay: Antiproliferative assay in vitro (MTT), CCRF/CEM; type: cell-based; conditions: read-out: Cytotoxic activity IC50, CCRF/CEM
Protocol: (§2) The tested cell lines were obtained from the American Type Culture Collection (Rockville, Maryland, USA) and maintained at the Cell Culture Collection of the Institute of Immunology and Experimental Therapy (Wrocław, Poland). The cells were seeded in 96-well plates (Sarstedt, USA) at a density of 10^4 cells per well in 100 µL of culture medium overnight. […] The normal mouse fibroblasts BALB3T3 was cultured in Dulbecco’s modified Eagle’s medium (Sigma-Aldrich, Chemie GmbH, Steinheim, Germany) supplemented with 2 mM glutamine (Sigma-Aldrich, Chemie GmbH, Steinheim, Germany) and 10 % fetal calf serum FBS (Sigma-Aldrich, Chemie GmbH, Steinheim, Germany). The all culture media were supplemented with streptomycin (100 µg/mL) and penicillin (100 U/mL) (both antibiotics from Polfa, Tarchomin, Poland). The cell cultures were maintained at 37 °C in humid atmosphere saturated with 5 % CO2. The MTT assay was used for the cytotoxicity screening against leukemia cells growing in suspension culture. This assay was performed after 96 h of the leukemia cells to varying concentrations (ranging from 1 to 100 µg/mL) of the tested substances. The derivatives of betulin were dissolved in 10 % DMSO to concentration of 1 mg/mL, and next diluted in culture medium to reach the required concentrations. […] During the last 3–4 h of incubation 20 µl of MTT solution were added to each well (MTT: 3-(4,5-dimethylthiazol-2-yl)-2,5-diphenyl tetrazolium bromide; stock solution: 5 mg/mL). The pale yellow MTT is reduced to a navy blue formazan in the mitochondria of living cells. At the end of incubation time, 80 µL of the lysing mixture was added to each well (lysing mixture: 225 mL dimethylformamide, 67.5 g sodium dodecyl sulfate and 275 mL of distilled water). After 24 h are formed the crystals of formazan, which are insoluble in aqueous solutions. The formazan crystals had been dissolved. The optical densities were read on a Multiskan RC photometer at 570 nm wavelength. The compounds in given concentration were examined in triplicates in each experiment which was repeated 3–5 times. The results of cytotoxic activity in vitro were expressed as an IC50 in µg/mL.

SW707 (human colorectal) = assay: Antiproliferative assay in vitro (SRB), SW707; type: cell-based; conditions: for IC50: read-out: Cytotoxic activity IC50, SW707
Protocol: as §1

P388 (mouse leukemia) = assay: Antiproliferative assay in vitro (MTT), P388; type: cell-based; conditions: Mus musculus; murine P388; 96 h exposure; 1 to 100 µg/mL; Neg = negative in the concentration used; read-out: Cytotoxic activity IC50, P388
Protocol: as §2

[3] = Antiproliferative assay in vitro (SRB), BALB3T3; type: cell-based, mouse; conditions: mouse; murine BALB3T3 normal fibroblasts; 96 h exposure; 1 to 100 µg/mL; Neg = negative in the concentration used; read-out: Cytotoxic activity IC50, BALB3T3
Protocol: as §1

[4] = test system: HL-60 (human promyelocytic leukemia); assay: Antiproliferative assay in vitro (MTT), HL-60; type: cell-based; conditions: Homo sapiens, read-out: Cytotoxic activity IC50, HL-60
Protocol: as §2

[5] = test system: BALB3T3 normal mouse fibroblasts; assay: Antiproliferative assay in vitro (SRB), BALB3T3; type: cell-based; conditions: murine BALB3T3 normal fibroblasts; 96 h exposure; 1 to 100 µg/mL; Neg = negative in the concentration used
Protocol: as §1

[6] = human T47D, 96 h exposure, 1 to 100 µg/mL, Neg = negative in the concentration used
[7] = human CCRF/CEM, 96 h exposure, 1 to 100 µg/mL, Neg = negative in the concentration used
[8] = human SW707, 96 h exposure, 1 to 100 µg/mL, Neg = negative in the concentration used
[9] = HL-60 cancer cell line, 96 h exposure

| SMILES | IC50 [1, 6] | IC50 [2, 7] | IC50 (P388 (mouse leukemia)) | IC50 at 96 h [3] | IC50 [4, 9] | melting point | other results |
| --- | --- | --- | --- | --- | --- | --- | --- |
| C=C(C)[C@@H]1CC[C@]2(COC(=O)C#CC)CC[C@]3(C)C(CCC4[C@@]5(C)CC[C@H](O)C(C)(C)C5CC[C@]43C)C12 (some centres unmarked) [Compound 9, 28-O-(2-Butynoyl)betulin] | 16.7 ± 5.5 mg/L (≈ 32.8 µM) | 2.1 ± 0.3 mg/L (≈ 4.13 µM) | 2.9 ± 1.4 mg/L (≈ 5.7 µM) | 17.4 ± 1.1 mg/L (≈ 34.2 µM) | 24.5 ± 1.9 mg/L (≈ 48.2 µM) | 111 to 113 °C | IC50 (SW707 (human colorectal); [8]): 24.3 ± 8.8 mg/L (≈ 47.8 µM) |
| C=C(C)[C@@H]1CC[C@]2(COC(=O)C#CC3CC3)CC[C@]3(C)C(CCC4[C@@]5(C)CCC(=O)C(C)(C)C5CC[C@]43C)C12 (some centres unmarked) [Compound 18, 28-O-(3-Cyclopropyl-2-propynoyl)betulone] |  |  |  |  | 33.9 ± 5.5 mg/L (≈ 63.6 µM) | 93 to 97 °C |  |
| C#CCOC(=O)OC[C@]12CC[C@@H](C(=C)C)C1C1CCC3[C@@]4(C)CCC(=O)C(C)(C)C4CC[C@@]3(C)[C@]1(C)CC2 (some centres unmarked) [Compound 24, 28-O-Propargyloxycarbonylbetulone] | 23.3 ± 3.5 mg/L (≈ 44.6 µM) | 18.7 ± 6.6 mg/L (≈ 35.8 µM) | 30.3 ± 11.8 mg/L (≈ 58 µM) |  | 11.6 ± 4.9 mg/L (≈ 22.2 µM) | 173 to 175 °C | Cytotoxic activity IC50, SW707 (SW707 (human colorectal); [8]): Neg; Cytotoxic activity IC50, BALB3T3 [5]: Neg |
| C=C(C)[C@@H]1CC[C@]2(COC(=O)C=CC)CC[C@]3(C)C(CCC4[C@@]5(C)CC[C@H](O)C(C)(C)C5CC[C@]43C)C12 (some centres unmarked) [Compound 8, 28-O-(2-Butenoyl)betulin] | 29.9 ± 9.3 mg/L (≈ 58.5 µM) | 28 ± 21.6 mg/L (≈ 54.8 µM) | 5.1 ± 4.9 mg/L (≈ 9.98 µM) | 25.6 ± 1.8 mg/L (≈ 50.1 µM) |  | 182 to 184 °C | IC50 (SW707 (human colorectal); [8]): 32 ± 4.2 mg/L (≈ 62.6 µM) |
| C#CCOC(=O)OC[C@]12CC[C@@H](C(=C)C)C1C1CCC3[C@@]4(C)CC[C@H](O)C(C)(C)C4CC[C@@]3(C)[C@]1(C)CC2 (some centres unmarked) [Compound 12] |  |  |  |  | 3.7 ± 0.5 mg/L (≈ 7.05 µM) |  |  |
| C=C(C)[C@@H]1CC[C@]2(COC(=O)C#CC)CC[C@]3(C)C(CCC4[C@@]5(C)CCC(=O)C(C)(C)C5CC[C@]43C)C12 (some centres unmarked) [Compound 21, 28-O-(2-Butynoyl)betulone] |  |  |  |  | 29.5 ± 5.4 mg/L (≈ 58.2 µM) | 92 to 94 °C |  |
| C=C(C)[C@@H]1CC[C@]2(CO)CC[C@]3(C)[C@H](CC[C@@H]4[C@@]5(C)CC[C@H](O)C(C)(C)[C@@H]5CC[C@]43C)[C@@H]12 [Betulin 1, lup-20(29)-ene-3β,28-diol, reference compound] |  |  |  | 47.3 ± 7.9 mg/L (≈ 107 µM) |  |  | IC50 ([1]; Homo sapiens, T47D, 96 h): 32.4 ± 10.7 mg/L (≈ 73.2 µM); IC50 ([2]; Homo sapiens, CCRF-CEM, 96 h): 10.9 ± 5.5 mg/L (≈ 24.6 µM); IC50 (SW707 (human colorectal); Homo sapiens, SW707, 96 h): 22.9 ± 15.4 mg/L (≈ 51.7 µM); IC50 ([4]; HL-60, 96 h): 7.2 ± 0.5 mg/L (≈ 16.3 µM) |
| C=C(C)[C@@H]1CC[C@]2(COC(=O)OCCC)CC[C@]3(C)C(CCC4[C@@]5(C)CCC(=O)C(C)(C)C5CC[C@]43C)C12 (some centres unmarked) [Compound 22, 28-O-Propoxycarbonylbetulone] |  |  |  |  | 21.4 ± 2.1 mg/L (≈ 40.6 µM) | 76 to 78 °C |  |
| C=C(C)[C@@H]1CC[C@]2(COC(=O)OCC#CC)CC[C@]3(C)C(CCC4[C@@]5(C)CCC(=O)C(C)(C)C5CC[C@]43C)C12 (some centres unmarked) [Compound 26, 28-O-(2-Butynyloxycarbonyl)betulone] | 79.2 ± 5.2 mg/L (≈ 148 µM) | 47.6 ± 5.7 mg/L (≈ 88.7 µM) | 18.3 ± 12.9 mg/L (≈ 34.1 µM) |  |  | 150 to 152 °C | Cytotoxic activity IC50, SW707 (SW707 (human colorectal); [8]): Neg; Cytotoxic activity IC50, BALB3T3 [5]: Neg |
